# Experimental data from patent US6342503B1, “1N-alkyl-n-arylpyrimidinamines and derivatives thereof” (DuPont Pharmaceuticals Company, priority 1993, dated 2002).
# Assays:
# CRF receptor = biological target: T1, CRF receptor (Rattus norvegicus, UniProt P35353); experiment: In vitro CRF receptor binding assay (competition with [125I] ovine CRF, rat cortex membranes); settings: read-out: Inhibition Ki
# T1 construct: 100 μl of membrane suspension as prepared above to give a total reaction volume of 300 μl; from tissue; host or cells: rat cerebral cortex membrane homogenate
# T1 sequence (P35353 24-415): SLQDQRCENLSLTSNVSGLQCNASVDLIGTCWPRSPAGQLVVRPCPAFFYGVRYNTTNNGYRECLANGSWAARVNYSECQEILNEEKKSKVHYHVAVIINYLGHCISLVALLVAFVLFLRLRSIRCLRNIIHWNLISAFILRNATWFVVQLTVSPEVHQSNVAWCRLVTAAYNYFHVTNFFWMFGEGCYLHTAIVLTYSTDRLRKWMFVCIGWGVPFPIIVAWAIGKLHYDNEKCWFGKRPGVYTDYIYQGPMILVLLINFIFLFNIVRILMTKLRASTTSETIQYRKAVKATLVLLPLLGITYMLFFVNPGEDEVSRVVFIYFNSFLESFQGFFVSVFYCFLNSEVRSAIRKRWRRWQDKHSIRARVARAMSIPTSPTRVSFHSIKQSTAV
SMILES,Ki (CRF receptor),melting point
CCN(c1nc(C)cc(C(=O)NC2CCCCC2)n1)c1ccc(C(C)C)cc1Br [compound 62],501 to 2000 nM,115 °C
CCN(c1nc(C)cc(C(=O)N2CCCCC2)n1)c1ccc(C(C)C)cc1Br [compound 60],501 to 2000 nM,107 to 108 °C
"CCN(c1nc(C)cc(C)n1)c1cc(Br)c(OC)cc1OC [compound 253, N-(3-Bromo-4,6-dimethoxyphenyl)-N-ethyl-4,6-dimethyl-2-pyrimidinamine]",501 to 2000 nM,143 to 145 °C
CCN(c1nc(C)cc(C(=O)N2CCN(c3ncccn3)CC2)n1)c1ccc(C(C)C)cc1Br [compound 273],501 to 2000 nM,114 to 116 °C
CCN(c1nc(C)cc(C(=O)c2ccc(OC)cc2)n1)c1ccc(C(C)C)cc1Br [compound 287],501 to 2000 nM,104 to 106 °C
COc1cc(Br)c(Nc2nc(C)cc(C)n2)c(Br)c1 [compound 223],501 to 2000 nM,175 to 177 °C
COc1cc(OC)c(N(C)c2nc(C)cc(C)n2)c(OC)c1 [compound 14],501 to 2000 nM,145 to 146 °C
"CCN(c1nc(C)cc(C)n1)c1c(OC)cc(OC)c(Br)c1Br [compound 251, N-(2,3-Dibromo-4,6-dimethoxyphenyl)-N-ethyl-4,6-dimethyl-2-pyrimidinamine]",501 to 2000 nM,133 to 138 °C
COc1ccc(Nc2nc(C)cc(C)n2)c(Br)c1 [compound 204],2000 to 10000 nM,118 to 119 °C
Cc1cc(N2CCCCC2)nc(N(C)c2ccc(C(C)C)cc2Br)n1 [compound 195],< 500 nM,186 to 187 °C
CCOC(=O)N1CCN(c2nc(C)nc(N(CC)c3c(Br)cc(OC)cc3OC)n2)CC1 [compound 244],2000 to 10000 nM,65 to 70 °C
"CCN(c1nc(C)cc(C)n1)c1ccc(C#N)cc1SC [compound 186, N-(4-cyano-2-methylthiophenyl)-N-ethyl-4,6-dimethyl-2-pyrimidinamine]",< 500 nM,99 to 100 °C

# Next, values leading:
Ki (CRF receptor),melting point,SMILES
< 500 nM,107 to 108 °C,"CCOc1cc(Br)c(N(CC)c2nc(C)cc(C)n2)c(Br)c1 [compound 224, N-(2,6-Dibromo-4-(ethoxy)phenyl)-N-ethyl-4,6-dimethyl-2-pyrimidinamine]"
< 500 nM,99 to 102 °C,CCN(c1nc(C)cc(C)n1)c1c(Cl)cc(OC)cc1OC [compound 141]
< 500 nM,109 to 112 °C,"C=CCN(c1nc(C)cc(N2CCOCC2)n1)c1ccc(C(C)C)cc1I [compound 165, N-(2-iodo4-(1-methylethyl)phenyl)-N-allyl4-morpholino-6-methyl-2-pyrimidinamine]"
< 500 nM,63 to 65 °C,CCN(c1nc(C)cc(C(O)(c2ccc(OC)cc2)c2ccc(OC)cc2)n1)c1ccc(C(C)C)cc1Br [compound 289]
< 500 nM,115 to 116 °C,CCN(c1nc(C)cc(C)n1)c1c(OC)cc(OC)cc1OC [compound 15]
< 500 nM,57 to 60 °C,CCN(c1nc(C)cc(C(=O)N2CCN(c3ccccc3OC)CC2)n1)c1ccc(C(C)C)cc1Br [compound 268]
< 500 nM,106 to 107 °C,CCN(c1nc(C)cc(N2CCCC2)n1)c1ccc(C(C)C)cc1Br [compound 192]
< 500 nM,61 to 63 °C,CCN(c1nc(C)cc(N2CCN(C=O)CC2)n1)c1ccc(C(C)C)cc1Br [compound 25]
< 500 nM,72 to 75 °C,CCN(c1nc(C)nc(N(C)C)n1)c1ccc(C(C)C)cc1Br [compound 240]
< 500 nM,165 to 167 °C,CCN(c1nc(C)cc(C(=O)c2cccnc2)n1)c1ccc(C(C)C)cc1Br [compound 284]
< 500 nM,56 to 58 °C,CCN(c1nc(C)cc(C(O)(c2ccccc2)c2ccccc2)n1)c1ccc(C(C)C)cc1Br [compound 293]
